Experimental data: ChEMBL document CHEMBL1201862, “PubChem BioAssay data set” (2004)
Active and inactive are the calls of the source.

Key:
[1] = molecular target: T1, Apoptotic protease-activating factor 1 (Homo sapiens, UniProt O14727); experiment: SAR analysis of small molecule Activators of Apaf-1 in a Fluorescent assay.; type: functional; conditions: read-out: EC50_Mean;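 note: caspase-3 cleavage of fluorogenic Rh110 DEVD substrate downstream of apoptosome activation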
T1 sequence (O14727 whole entry): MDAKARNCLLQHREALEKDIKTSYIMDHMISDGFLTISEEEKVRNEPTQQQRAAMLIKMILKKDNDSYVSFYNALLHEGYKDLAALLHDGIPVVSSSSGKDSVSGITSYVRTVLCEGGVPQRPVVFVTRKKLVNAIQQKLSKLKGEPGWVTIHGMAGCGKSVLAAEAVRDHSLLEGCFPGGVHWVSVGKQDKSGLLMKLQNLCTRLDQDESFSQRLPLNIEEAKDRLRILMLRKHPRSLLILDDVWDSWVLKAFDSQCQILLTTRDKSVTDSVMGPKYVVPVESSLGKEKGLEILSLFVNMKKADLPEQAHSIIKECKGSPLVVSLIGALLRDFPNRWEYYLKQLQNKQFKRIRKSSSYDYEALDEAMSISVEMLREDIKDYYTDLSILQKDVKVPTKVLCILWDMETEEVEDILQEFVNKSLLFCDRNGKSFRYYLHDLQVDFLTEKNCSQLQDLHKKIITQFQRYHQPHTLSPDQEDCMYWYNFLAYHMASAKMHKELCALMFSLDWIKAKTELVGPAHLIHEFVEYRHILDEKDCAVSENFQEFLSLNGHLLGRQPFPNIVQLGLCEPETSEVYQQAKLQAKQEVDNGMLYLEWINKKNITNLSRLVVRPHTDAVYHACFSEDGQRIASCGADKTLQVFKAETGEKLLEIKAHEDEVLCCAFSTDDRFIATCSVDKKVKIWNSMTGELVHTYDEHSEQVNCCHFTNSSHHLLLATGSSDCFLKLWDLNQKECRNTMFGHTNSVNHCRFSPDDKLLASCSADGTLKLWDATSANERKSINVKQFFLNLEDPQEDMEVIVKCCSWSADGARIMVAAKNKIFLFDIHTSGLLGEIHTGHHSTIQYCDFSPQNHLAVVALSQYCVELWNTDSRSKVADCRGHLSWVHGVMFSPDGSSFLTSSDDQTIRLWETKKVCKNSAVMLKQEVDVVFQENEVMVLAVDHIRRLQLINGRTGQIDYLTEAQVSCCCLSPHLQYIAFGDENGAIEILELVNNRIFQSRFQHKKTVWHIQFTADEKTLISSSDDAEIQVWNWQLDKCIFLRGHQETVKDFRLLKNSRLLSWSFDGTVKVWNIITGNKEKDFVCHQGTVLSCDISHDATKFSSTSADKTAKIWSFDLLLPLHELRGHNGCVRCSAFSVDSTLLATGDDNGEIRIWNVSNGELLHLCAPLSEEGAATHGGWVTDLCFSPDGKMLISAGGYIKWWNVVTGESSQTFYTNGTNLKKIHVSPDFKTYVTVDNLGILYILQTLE

[2] = system: CHO-K1; experiment: (§1) Counterscreen for antagonists of the orexin 1 receptor (OX1R; HCRTR1): Homogeneous time resolved fluorescence (HTRF)-based cell-based dose response assay to identify antagonists of the parental CHO-K1 cell line. [Related pubchem assays (depositor defined):AID434989, AID435008, AID463079, AID485270, AID492963, AID492964, AID492965, AID493232, AID504699, AID504701]; type: functional; conditions: Cricetulus griseus
[3] = as §1, with “Fluorescence-based” for “Homogeneous time resolved fluorescence (HTRF)-based”, “cell-based high throughput” for “cell-based”, “CHO” for “CHO-K1”; type: functional
[4] = molecular target: T2, Orexin/Hypocretin receptor type 1 (Homo sapiens, UniProt O43613); experiment: Homogeneous Time Resolved Fluorescence (HTRF)-based cell-based high throughput dose response assay for antagonists of the orexin 1 receptor (OX1R; HCRTR1). [Related pubchem assays (depositor defined):AID434989, AID435008, AID463079, AID485270, AID492963, AID492964, AID492965, AID493232, AID504717, AID504718]; type: functional
T2 sequence (O43613 whole entry): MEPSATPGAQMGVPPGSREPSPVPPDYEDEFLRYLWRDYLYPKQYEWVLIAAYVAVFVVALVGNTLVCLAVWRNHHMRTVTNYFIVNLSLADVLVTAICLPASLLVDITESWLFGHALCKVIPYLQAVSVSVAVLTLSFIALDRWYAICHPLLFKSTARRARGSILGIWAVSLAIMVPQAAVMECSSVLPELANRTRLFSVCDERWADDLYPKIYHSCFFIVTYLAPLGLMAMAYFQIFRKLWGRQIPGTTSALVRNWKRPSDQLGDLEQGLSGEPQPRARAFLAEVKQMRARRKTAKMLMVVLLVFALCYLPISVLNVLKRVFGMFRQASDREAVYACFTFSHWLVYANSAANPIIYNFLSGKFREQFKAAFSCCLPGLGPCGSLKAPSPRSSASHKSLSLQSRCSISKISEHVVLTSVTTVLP

[5] = molecular target: T2, Orexin/Hypocretin receptor type 1; experiment: Fluorescence-based cell-based high throughput dose response assay for antagonists of the orexin 1 receptor (OX1R; HCRTR1). [Related pubchem assays (depositor defined):AID434989, AID435008, AID463079, AID485270, AID492963, AID492964, AID492965, AID493232, AID504717, AID504718]; type: functional
[6] = molecular target: T3, Orexin receptor type 2 (Homo sapiens, UniProt O43614); experiment: Counterscreen assay for antagonists of the orexin 1 receptor (OX1R; HCRTR1): Fluorescence-based cell-based dose response assay for antagonists of the orexin 2 receptor (OX2R; HCRTR2), run by assay provider.; type: functional
T3 sequence (O43614 whole entry): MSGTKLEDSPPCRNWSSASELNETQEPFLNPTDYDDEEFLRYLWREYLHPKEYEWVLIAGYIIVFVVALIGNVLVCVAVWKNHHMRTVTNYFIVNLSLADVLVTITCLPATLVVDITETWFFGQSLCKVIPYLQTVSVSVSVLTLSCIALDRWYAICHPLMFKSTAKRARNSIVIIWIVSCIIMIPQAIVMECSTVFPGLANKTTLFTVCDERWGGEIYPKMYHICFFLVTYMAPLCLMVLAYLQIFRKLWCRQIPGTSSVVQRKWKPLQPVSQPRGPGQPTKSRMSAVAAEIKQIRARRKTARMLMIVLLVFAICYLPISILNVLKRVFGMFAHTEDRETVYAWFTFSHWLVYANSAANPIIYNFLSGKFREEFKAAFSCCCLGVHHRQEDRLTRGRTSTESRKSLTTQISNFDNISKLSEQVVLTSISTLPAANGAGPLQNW

[7] = molecular target: T3, Orexin receptor type 2; experiment: Counterscreen assay for antagonists of the orexin 1 receptor (OX1R; HCRTR1): Homogeneous Time Resolved Fluorescence (HTRF)-based cell-based dose response assay for antagonists of the orexin 2 receptor (OX2R; HCRTR2), run by assay provider.; type: functional
[8] = molecular target: Luciferin 4-monooxygenase (Photinus pyralis, UniProt P08659); experiment: Counter Screen for Luciferase-based Assay Positives. [Related pubchem assays: 620, 618, 411 ]
Luciferin 4-monooxygenase, sequence (P08659 whole entry): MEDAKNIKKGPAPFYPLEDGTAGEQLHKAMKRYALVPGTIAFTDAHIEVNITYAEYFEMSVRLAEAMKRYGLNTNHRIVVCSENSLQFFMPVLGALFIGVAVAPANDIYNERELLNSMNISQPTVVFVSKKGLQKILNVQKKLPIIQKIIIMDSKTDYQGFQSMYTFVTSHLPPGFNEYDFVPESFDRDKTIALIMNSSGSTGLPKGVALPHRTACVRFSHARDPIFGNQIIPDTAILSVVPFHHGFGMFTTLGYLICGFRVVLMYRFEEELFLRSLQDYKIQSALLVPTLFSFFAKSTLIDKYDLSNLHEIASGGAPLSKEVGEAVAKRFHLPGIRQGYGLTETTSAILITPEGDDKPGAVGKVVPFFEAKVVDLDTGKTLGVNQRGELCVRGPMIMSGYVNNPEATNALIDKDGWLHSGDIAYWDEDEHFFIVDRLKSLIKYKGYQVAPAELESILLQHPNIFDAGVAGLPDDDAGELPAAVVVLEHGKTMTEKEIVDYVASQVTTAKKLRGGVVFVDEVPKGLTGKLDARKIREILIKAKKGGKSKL

[9] = cytotoxicity in HPDE-C7 cells, cell-based, fluorescence, HTS (AID 430); type: functional; conditions: Homo sapiens
[10] = inhibitors of intracellular T. cruzi replication, confirmation, NIH3T3 host cells, beta-gal luminescence (AID 2044); type: functional, cell-based;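 note: intracellular parasites grown in NIH/3T3 mouse fibroblasts as host cells; luminescent beta-galactosidase reporter signal from transgenic T. cruzi replicating inside host cells; inhibitors lower the luminescence signal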
[11] = cytotoxicity in KRAS-transformed pancreatic duct cells, primary screen, cell-based, fluorescence, HTS (AID 431); type: functional; conditions: Homo sapiens;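 note: cell line used: HPDE-C7K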
[12] = growth suppression of PTEN-null colon cells, dose response, cell-based, HCT116 PTEN knockout (AID 1047); type: functional;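 note: HCT116 colon tumor cells with PTEN knocked out; cells exposed to compound for 60 hours before readout; potency for loss of cell viability measured by luminescence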
[13] = system: HT-1080; experiment: cytotoxicity in HT1080 fibrosarcoma cells, cell-based, fluorescence readout (AID 620); type: functional; conditions: Homo sapiens
[14] = cytotoxicity toward NIH3T3 fibroblasts, dose response, counter-screen, cell-based, ATP luminescence, mouse fibroblasts (AID 2010); type: functional;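 note: cells exposed to compound for about 90 hours before reading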
[15] = growth suppression of beta-catenin-knockout colon cells, dose response, cell-based, HCT116, human colon tumor (AID 1045); type: functional;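 note: HCT116 colon tumor cells with beta catenin knocked out; cells exposed to compound for 60 hours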
[16] = molecular target: Glucose-6-phosphate 1-dehydrogenase (Homo sapiens, UniProt P11413); experiment: human G6PD enzyme inhibitors, dose response, selectivity assay for P. falciparum G6PD inhibitor project, biochemical, fluorescence (AID 504792); type: functional
[17] = molecular target: FAD-linked sulfhydryl oxidase ALR (Homo sapiens, UniProt P55789); experiment: inhibitors of human ALR sulfhydryl oxidase, dose response, biochemical, H2O2 detection, luminescence, cherry-pick (AID 493248)
FAD-linked sulfhydryl oxidase ALR, sequence (P55789 whole entry): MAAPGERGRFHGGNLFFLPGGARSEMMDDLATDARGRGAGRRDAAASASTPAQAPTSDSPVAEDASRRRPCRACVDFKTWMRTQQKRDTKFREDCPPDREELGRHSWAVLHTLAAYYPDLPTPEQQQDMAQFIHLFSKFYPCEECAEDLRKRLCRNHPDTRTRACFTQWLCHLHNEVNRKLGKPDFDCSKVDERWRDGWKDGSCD

[18] = cytotoxicity in HEK-293T cells, dose response, cytotoxicity control for BCR NF-kB inhibitor project, luminescence, B-cell screen hits (AID 489021); type: functional, cell-based;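 note: HEK-293T cells carrying an NF-kB luciferase reporter; cells exposed to compound for about 14 hours before viability readout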
[19] = molecular target: Hepatocyte nuclear factor 4-alpha (Homo sapiens, UniProt P41235); type: functional, cell-based;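 note: biochemical luminescence-based dose-response counterscreen measuring inhibition of HNF4 dimerization, run alongside a screen for blockers of ABHD5–perilipin-5 interaction; split luciferase complementation of HNF4 fusion proteins in cell lysate measuring dimerization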
Hepatocyte nuclear factor 4-alpha, sequence (P41235 whole entry, the tested form may be a part): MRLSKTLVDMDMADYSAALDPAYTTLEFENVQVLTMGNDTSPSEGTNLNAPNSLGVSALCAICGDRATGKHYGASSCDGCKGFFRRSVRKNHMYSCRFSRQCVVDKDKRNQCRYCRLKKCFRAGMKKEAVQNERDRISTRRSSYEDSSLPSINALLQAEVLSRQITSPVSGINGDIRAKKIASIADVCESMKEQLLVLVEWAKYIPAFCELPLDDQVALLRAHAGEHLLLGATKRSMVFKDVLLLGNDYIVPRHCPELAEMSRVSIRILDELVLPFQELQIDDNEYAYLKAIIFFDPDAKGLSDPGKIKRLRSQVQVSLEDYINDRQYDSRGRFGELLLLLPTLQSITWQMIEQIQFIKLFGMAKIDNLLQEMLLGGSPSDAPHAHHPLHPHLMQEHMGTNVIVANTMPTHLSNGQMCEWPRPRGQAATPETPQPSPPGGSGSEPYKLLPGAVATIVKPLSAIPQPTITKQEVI

[20] = molecular target: T4, Neuropeptides B/W receptor type 1 (Homo sapiens, UniProt P48145); experiment: GPR7 antagonist potency, late-stage follow-up, cell-based, fluorescence, dose response, set 5 (AID 588566); type: functional
T4 sequence (P48145 whole entry): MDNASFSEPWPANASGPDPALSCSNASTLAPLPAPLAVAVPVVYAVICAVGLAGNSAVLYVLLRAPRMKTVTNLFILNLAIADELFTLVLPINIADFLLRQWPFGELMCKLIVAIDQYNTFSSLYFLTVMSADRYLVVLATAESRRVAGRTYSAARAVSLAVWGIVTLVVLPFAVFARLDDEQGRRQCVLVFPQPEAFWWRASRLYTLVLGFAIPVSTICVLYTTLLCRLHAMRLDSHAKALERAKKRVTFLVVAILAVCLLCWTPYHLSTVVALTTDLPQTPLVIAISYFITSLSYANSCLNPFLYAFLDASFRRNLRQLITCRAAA

[21] = molecular target: Melanin-concentrating hormone receptor 1 (Homo sapiens, UniProt Q99705); experiment: Late-stage fluorescence-based counterscreen for antagonists of the G-protein coupled receptor 7 (GPR7): cell-based dose response assay to identify antagonists of the melanin-concentrating hormone receptor 1 (MCHR1) Set 5.; type: functional
Melanin-concentrating hormone receptor 1, sequence (Q99705 whole entry, the tested form may be a part): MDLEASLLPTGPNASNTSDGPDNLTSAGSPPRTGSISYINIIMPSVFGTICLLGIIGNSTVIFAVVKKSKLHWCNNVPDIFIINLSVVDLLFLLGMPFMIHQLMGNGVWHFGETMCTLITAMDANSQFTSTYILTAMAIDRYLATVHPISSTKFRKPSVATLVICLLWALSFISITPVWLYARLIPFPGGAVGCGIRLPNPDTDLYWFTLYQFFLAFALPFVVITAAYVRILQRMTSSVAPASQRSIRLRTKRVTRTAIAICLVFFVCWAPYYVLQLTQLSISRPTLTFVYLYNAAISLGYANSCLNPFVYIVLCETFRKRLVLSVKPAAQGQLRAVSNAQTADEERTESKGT

[22] = CAL PDZ domain peptide-binding inhibitors, dose response, biochemical, fluorescence polarization, untagged CAL PDZ, cherry-pick, set 2 (AID 602254); type: functional
[23] = molecular target: Serine/threonine-protein kinase pim-1 (Homo sapiens, UniProt P11309); type: functional
Serine/threonine-protein kinase pim-1, sequence (P11309 whole entry): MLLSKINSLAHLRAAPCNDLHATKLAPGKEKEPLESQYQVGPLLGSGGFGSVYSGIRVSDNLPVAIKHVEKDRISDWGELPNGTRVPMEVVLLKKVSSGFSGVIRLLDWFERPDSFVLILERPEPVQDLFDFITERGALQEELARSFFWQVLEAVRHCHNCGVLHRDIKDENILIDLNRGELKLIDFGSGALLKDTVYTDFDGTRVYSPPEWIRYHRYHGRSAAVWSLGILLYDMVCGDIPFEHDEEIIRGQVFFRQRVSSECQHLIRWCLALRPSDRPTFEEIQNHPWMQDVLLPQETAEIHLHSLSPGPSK

[24] = molecular target: Cell division cycle 7-related protein kinase (Homo sapiens, UniProt O00311); type: functional;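 note: value obtained from a kinome-wide kinase panel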
[25] = molecular target: Homeodomain-interacting protein kinase 2 (Homo sapiens, UniProt Q9H2X6); type: functional;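 note: measured within a kinome-wide kinase profiling panel, HIPK2 being one panel member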
Homeodomain-interacting protein kinase 2, sequence (Q9H2X6 whole entry): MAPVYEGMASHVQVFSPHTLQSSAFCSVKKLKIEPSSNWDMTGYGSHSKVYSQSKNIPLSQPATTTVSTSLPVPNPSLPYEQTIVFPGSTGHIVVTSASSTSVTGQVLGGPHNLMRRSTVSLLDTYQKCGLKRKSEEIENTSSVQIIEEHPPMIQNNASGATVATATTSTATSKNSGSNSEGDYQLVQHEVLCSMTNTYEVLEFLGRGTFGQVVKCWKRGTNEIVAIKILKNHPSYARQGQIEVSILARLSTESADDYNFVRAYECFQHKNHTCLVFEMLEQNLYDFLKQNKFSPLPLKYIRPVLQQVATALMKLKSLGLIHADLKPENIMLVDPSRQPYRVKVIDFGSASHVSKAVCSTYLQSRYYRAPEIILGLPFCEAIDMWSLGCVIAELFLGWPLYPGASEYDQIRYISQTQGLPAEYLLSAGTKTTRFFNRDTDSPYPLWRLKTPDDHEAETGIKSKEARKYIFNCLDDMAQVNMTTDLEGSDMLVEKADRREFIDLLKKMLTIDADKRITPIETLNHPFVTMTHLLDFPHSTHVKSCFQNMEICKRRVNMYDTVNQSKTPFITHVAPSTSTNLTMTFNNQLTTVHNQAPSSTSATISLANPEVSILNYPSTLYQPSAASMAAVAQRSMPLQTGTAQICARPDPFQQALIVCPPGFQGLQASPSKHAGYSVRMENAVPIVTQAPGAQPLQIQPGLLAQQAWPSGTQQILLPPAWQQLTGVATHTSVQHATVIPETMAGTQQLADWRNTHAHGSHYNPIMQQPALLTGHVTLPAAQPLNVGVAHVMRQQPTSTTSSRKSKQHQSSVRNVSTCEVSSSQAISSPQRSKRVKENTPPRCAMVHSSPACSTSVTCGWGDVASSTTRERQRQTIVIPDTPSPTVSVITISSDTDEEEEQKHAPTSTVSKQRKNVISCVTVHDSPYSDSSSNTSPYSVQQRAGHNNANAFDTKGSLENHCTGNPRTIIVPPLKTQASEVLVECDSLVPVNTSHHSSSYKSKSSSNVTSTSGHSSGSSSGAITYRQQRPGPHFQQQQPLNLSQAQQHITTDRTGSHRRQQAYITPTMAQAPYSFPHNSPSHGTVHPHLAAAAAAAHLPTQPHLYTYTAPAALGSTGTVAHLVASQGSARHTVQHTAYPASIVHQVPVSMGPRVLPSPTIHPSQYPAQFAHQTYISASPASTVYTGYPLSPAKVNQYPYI

[26] = molecular target: Interleukin-1 receptor-associated kinase 4 (Homo sapiens, UniProt Q9NWZ3); type: functional
Interleukin-1 receptor-associated kinase 4, sequence (Q9NWZ3 whole entry): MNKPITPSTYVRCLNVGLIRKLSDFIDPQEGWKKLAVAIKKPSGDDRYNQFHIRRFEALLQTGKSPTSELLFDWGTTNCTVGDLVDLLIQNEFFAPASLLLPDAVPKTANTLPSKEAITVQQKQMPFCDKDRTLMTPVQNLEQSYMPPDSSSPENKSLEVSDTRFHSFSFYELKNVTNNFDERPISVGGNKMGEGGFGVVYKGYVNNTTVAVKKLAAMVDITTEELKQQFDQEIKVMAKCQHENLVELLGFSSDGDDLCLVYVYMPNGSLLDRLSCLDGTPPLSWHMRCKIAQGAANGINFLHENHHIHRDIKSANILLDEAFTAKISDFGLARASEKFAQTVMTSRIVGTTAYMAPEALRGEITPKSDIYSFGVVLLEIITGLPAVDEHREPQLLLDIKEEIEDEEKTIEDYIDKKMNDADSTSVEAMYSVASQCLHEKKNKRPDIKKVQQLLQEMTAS

[27] = molecular target: Glycogen synthase kinase-3 beta (Homo sapiens, UniProt P49841); type: functional;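 note: value comes from a broad kinome profiling panel, with GSK3B as the panel member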
[28] = molecular target: cAMP-dependent protein kinase catalytic subunit alpha (Homo sapiens, UniProt P17612); type: functional
[29] = molecular target: Mitogen-activated protein kinase kinase kinase kinase 4 (Homo sapiens, UniProt O95819); type: functional
[30] = molecular target: Mitochondrial peptide methionine sulfoxide reductase (Bos taurus, UniProt P54149); type: functional;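 note: absorbance read-out, biochemical high-throughput dose-response screen for MsrA inhibitors, confirmatory; recombinant bovine MsrA coupled to E. coli TrxB with NADPH and selenocystamine; potency is for inhibitors of MsrA activity on DMSO substrate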
Mitochondrial peptide methionine sulfoxide reductase, sequence (P54149 whole entry): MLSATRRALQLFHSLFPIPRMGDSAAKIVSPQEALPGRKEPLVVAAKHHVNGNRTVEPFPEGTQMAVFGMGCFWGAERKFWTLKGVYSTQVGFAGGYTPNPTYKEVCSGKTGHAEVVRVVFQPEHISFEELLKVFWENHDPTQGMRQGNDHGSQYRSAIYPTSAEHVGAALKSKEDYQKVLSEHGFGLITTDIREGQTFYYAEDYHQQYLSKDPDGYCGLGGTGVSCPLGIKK

[31] = molecular target: Tyrosine-protein kinase SYK (Homo sapiens, UniProt P43405); type: functional
[32] = molecular target: Mitogen-activated protein kinase 13 (Homo sapiens, UniProt O15264); type: functional
Mitogen-activated protein kinase 13, sequence (O15264 whole entry): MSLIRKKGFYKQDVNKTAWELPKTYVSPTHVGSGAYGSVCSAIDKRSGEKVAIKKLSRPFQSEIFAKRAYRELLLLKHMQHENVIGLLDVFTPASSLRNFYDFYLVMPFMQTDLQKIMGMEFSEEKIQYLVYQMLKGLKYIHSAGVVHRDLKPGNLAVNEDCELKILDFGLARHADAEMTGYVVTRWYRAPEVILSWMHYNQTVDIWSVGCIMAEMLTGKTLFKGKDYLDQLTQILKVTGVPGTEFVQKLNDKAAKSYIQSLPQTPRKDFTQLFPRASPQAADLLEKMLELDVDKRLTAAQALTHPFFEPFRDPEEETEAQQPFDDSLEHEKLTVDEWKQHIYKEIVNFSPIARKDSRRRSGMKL

[33] = molecular target: Proto-oncogene tyrosine-protein kinase Src (Homo sapiens, UniProt P12931); type: functional;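 note: SRC entry within a kinome-wide kinase profiling panel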
Proto-oncogene tyrosine-protein kinase Src, sequence (P12931 2-536 limits assumed): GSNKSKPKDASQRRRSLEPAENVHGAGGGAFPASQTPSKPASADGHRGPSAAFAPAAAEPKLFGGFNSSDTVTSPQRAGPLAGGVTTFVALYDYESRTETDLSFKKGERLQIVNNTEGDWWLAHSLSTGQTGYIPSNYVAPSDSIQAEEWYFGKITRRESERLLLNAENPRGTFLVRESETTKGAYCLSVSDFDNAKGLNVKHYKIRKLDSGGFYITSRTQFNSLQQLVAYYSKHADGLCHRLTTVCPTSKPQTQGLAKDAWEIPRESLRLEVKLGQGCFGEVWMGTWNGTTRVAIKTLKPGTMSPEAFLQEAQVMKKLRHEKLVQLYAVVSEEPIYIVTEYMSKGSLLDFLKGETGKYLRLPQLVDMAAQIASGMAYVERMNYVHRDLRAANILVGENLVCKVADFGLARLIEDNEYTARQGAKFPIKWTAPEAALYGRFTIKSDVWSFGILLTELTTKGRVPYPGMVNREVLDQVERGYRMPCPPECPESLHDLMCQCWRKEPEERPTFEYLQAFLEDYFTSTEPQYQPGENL

[34] = THP-1 cell cytotoxicity, cytotoxicity control, set 4 (AID 504911); type: functional; conditions: Mycobacterium tuberculosis

## CCOc1ccccc1NC(=O)CCS(=O)(=O)c1ccc2c(c1)CCN2C(C)=O
[1]
  EC50: > 100 µM (inactive)

## Cc1c(/C=C/C(=O)c2cccs2)cnn1C
[2]
  IC50: 35 µM (inactive)
[3]
  IC50: > 49.8 µM (inactive)
[4]
  IC50: 3.97 µM (active)
[5]
  IC50: > 49.8 µM (inactive)
[6]
  IC50: > 88.8 µM (inactive)
[7]
  IC50: > 50 µM (inactive)

## CC1=CC(C)(C)Nc2ccc(OC(=O)CN3C(=O)CCC3=O)cc21
[8]
  EC50: 0.79 µM (active)
[9]
  EC50: 7.45 µM (active)
[10]
  EC50: 2.93 µM (active)
[11]
  EC50: 8.75 µM (active)
[12]
  EC50: 8.84 µM (active)
[13]
  EC50: > 50 µM (not active)
[14]
  EC50: 8.86 µM (active)
[15]
  EC50: 5.71 µM (active)
[16]
  IC50: 54 µM (inactive)
[17]
  AC50: 2.79 µM (active)
[18]
  IC50: 48.4 µM (inactive)
[19]
  IC50: 9.33 µM (active)

## COc1ccc(Oc2c(Cl)cnn(Cc3cccc4ccccc34)c2=O)c(F)c1F
[20]
  IC50: 0.292 µM (active)
[21]
  IC50: 2.05 µM (active)

## CCOC(=O)C(C#N)c1c(Cl)c(Br)nn(Cc2cccc3ccccc23)c1=O (stereo unspecified)
[20]
  IC50: 1.45 µM (active)
[21]
  IC50: 3.33 µM (active)

## O=C(CNC(=O)c1ccc2c(c1)OCCO2)N/N=C/c1ccc(Cl)cc1
[22]
  AC50: 101 µM (active)

## Cc1n[nH]c2ccc(-c3cncc(OCCN(C)S(C)(=O)=O)c3)cc12
[23]
  Ki: 5.01 µM (active)
[24]
  Ki: 0.0126 µM (active)
[25]
  Ki: > 3.16 µM (inactive)
[26]
  Ki: 3.16 µM (active)
[27]
  Ki: 0.398 µM (active)
[28]
  Ki: 0.631 µM (active)
[29]
  Ki: 0.126 µM (active)

## COC(=O)CC/C(C)=N\Nc1ccc([N+](=O)[O-])cc1[N+](=O)[O-]
[30]
  IC50: 155 µM (inactive)

## Cn1cc(C=C2C(=O)Nc3cccnc32)c2ccccc21 [GW441756X]
[31]
  Ki: 0.501 µM (active)
[32]
  Ki: > 7.94 µM (inactive)
[33]
  Ki: 0.501 µM (active)

## NC(=O)c1cnccn1 [PYRAZINAMIDE]
[34]
  CC50: > 100 µM (active)
